What follows are compounds tested against human RIP1 kinase domain (2-375) (Homo sapiens (Human), UniProt Q13546) (assay: biochemical). Conditions: Ki.
Format: biochemical
Summary of the method: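 Ki^app comes from Morrison tight-binding fits of fractional activity versus compound concentration. Activity was read as ADP production, via tracer displacement lowering fluorescence polarization (633 nm laser). Conditions: 2 h, 50 nM insect-cell-expressed enzyme, 50 uM ATP, 30 mM MgCl2, 1 mM DTT, 0.5% DMSO, pH 7.5 Hepes.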

Chain of human RIP1 kinase domain (2-375) (Q13546 2-375): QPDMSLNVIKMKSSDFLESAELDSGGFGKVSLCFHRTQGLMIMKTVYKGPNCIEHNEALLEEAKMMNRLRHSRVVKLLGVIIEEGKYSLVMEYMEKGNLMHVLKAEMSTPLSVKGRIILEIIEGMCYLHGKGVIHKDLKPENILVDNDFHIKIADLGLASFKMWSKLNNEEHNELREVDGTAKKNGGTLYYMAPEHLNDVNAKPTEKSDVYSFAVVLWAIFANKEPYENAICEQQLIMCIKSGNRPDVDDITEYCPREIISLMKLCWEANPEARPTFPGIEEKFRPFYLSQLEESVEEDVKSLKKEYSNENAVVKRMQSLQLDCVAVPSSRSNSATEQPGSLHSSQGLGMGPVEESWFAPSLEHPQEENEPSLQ

Ki	SMILES
70 nM	CN1C(=O)[C@@H](NC(=O)c2cn3c(C(F)(F)F)cccc3n2)COc2ccccc21 (single isomer, unassigned) [Example 736]

Same assay, conditions: Table 1; apparent Ki (Morrison tight-binding fit); 50 nM RIP1 kinase domain, 50 uM ATP, 2 hours incubation; read-out: RIP1 Ki

SMILES	Ki
CN1C(=O)[C@@H](NC(=O)c2n[nH]c3c2CC2CC2(C)C3)COc2ccccc21 (stereo partly drawn) [Example 1, 5a-methyl-N—((S)-5-methyl-4-oxo-2,3,4,5-tetrahydrobenzo[b][1,4]oxazepin-3-yl)-1,4,4a,5,5a,6-hexahydrocyclopropa[f]indazole-3-carboxamide]	4700 nM
CN1C(=O)[C@@H](NC(=O)c2n[nH]c3c2CCC2(CC2)C3)COc2ccccc21 [Example 2, (S)—N-(5-methyl-4-oxo-2,3,4,5-tetrahydrobenzo[b][1,4]oxazepin-3-yl)-1′,4′,5′,7′-tetrahydrospiro[cyclopropane-1,6′-indazole]-3′-carboxamide]	6500 nM
O=C(N[C@H]1COc2ccccc2NC1=O)c1n[nH]c2c1CC1CC1C2 (stereo partly drawn) [Example 4, N—((S)-4-oxo-2,3,4,5-tetrahydrobenzo[b][1,4]oxazepin-3-yl)-1,4,4a,5,5a,6-hexahydrocyclopropa[f]indazole-3-carboxamide]	5500 nM

Same assay, conditions: Table 3; apparent Ki (Morrison tight-binding fit); 50 nM RIP1 kinase domain, 50 uM ATP, 2 hours incubation; read-out: Ki

Ki	SMILES
536 nM	Cc1cc2n(n1)CC[C@H](NC(=O)c1ncn3ccc(C(F)(F)F)cc13)C(=O)N2C (stereo in doubt) [Example 337, N-(2,4-dimethyl-5-oxo-5,6,7,8-tetrahydro-4H-pyrazolo[1,5-a][1,3]diazepin-6-yl)-7-(trifluoromethyl)imidazo[1,5-a]pyridine-1-carboxamide]

Same assay, conditions: Table 5; apparent Ki (Morrison tight-binding fit); 50 nM RIP1 kinase domain, 50 uM ATP, 2 hours incubation; read-out: Ki

SMILES	Ki
COC1CN(Cc2cc3n(n2)CC[C@H](NC(=O)c2ncn(Cc4ccccc4)n2)C(=O)N3C)C1 (single isomer, unassigned) [Example 725]	172 nM
CN1C(=O)[C@@H](NC(=O)c2ncn(Cc3ccccc3)n2)CCn2nc(CN3CC(F)C3)cc21 (single isomer, unassigned) [Example 726]	142 nM
CN1C(=O)[C@@H](NC(=O)c2ncn(Cc3ccccc3)n2)CCn2nc(CN3CCC(F)(F)C3)cc21 (single isomer, unassigned) [Example 727]	59 nM
COCCNCc1cc2n(n1)CC[C@H](NC(=O)c1ncn(Cc3ccccc3)n1)C(=O)N2C (single isomer, unassigned) [Example 728]	225 nM
CN1C(=O)[C@@H](NC(=O)c2nc3n(n2)CCN[C@@H]3c2ccccc2)COc2ccccc21 (single isomer, unassigned) [Example 729]	74 nM
CN1C(=O)[C@@H](NC(=O)c2nc3n(n2)CCN(C)C3c2ccccc2)COc2ccccc21 (single isomer, unassigned) [Example 730]	112 nM
CN1C(=O)[C@@H](NC(=O)c2ncn(Cc3ccccc3)n2)CCn2nc(CO)cc21 (single isomer, unassigned) [Example 732]	61 nM
CN1C(=O)[C@@H](NC(=O)c2ncn(Cc3ccccc3)n2)CCn2nc(CNCC(F)(F)F)cc21 (single isomer, unassigned) [Example 733]	68 nM

Next, values leading:

Ki	SMILES
149 nM	CN1C(=O)[C@@H](NC(=O)c2nc3n(n2)[C@@H](c2ccccc2)CCC3)COc2ccccc21 (single isomer, unassigned) [Example 734]
4020 nM	CN1C(=O)[C@H](NC(=O)c2ncn(Cc3ccccc3)n2)CCn2nc(CCCN3CCOCC3)cc21 (single isomer, unassigned) [Example 738]
66 nM	CN1C(=O)[C@@H](NC(=O)c2cn(Cc3ccccc3)cn2)CCn2nccc21 (single isomer, unassigned) [Example 750]
267 nM	CC[C@]1(C)OCc2cnc(C(=O)N[C@H]3COc4ccccc4N(C)C3=O)cc21 (single isomer, unassigned) [Example 764]
15 nM	CC[C@@]1(C)OCc2cnc(C(=O)N[C@H]3COc4ccccc4N(C)C3=O)cc21 (single isomer, unassigned) [Example 765]
598 nM	COCCNCc1cc2n(n1)CCC(NC(=O)c1ncn(Cc3ccccc3)n1)C(=O)N2C (single isomer, unassigned) [Example 780, 1-benzyl-N-(2-(((2-methoxyethyl)amino)methyl)-4-methyl-5-oxo-5,6,7,8-tetrahydro-4H-pyrazolo[1,5-a][1,3]diazepin-6-yl)-1H-1,2,4-triazole-3-carboxamide]
225 nM	COCCNCc1cc2n(n1)CCC(NC(=O)c1ncn(Cc3ccccc3)n1)C(=O)N2C (single isomer, unassigned) [Example 784]
74 nM	CN1C(=O)[C@@H](NC(=O)c2nc3n(n2)CCN[C@@H]3c2ccccc2)COc2ccccc21 (single isomer, unassigned) [Example 785]
61 nM	CN1C(=O)[C@@H](NC(=O)c2ncn(Cc3ccccc3)n2)CCn2nc(CO)cc21 (single isomer, unassigned) [Example 788]
68 nM	CN1C(=O)[C@@H](NC(=O)c2ncn(Cc3ccccc3)n2)CCn2nc(CNCC(F)(F)F)cc21 (single isomer, unassigned) [Example 789]
149 nM	CN1C(=O)[C@@H](NC(=O)c2nc3n(n2)[C@@H](c2ccccc2)CCC3)COc2ccccc21 (single isomer, unassigned) [Example 790]
13 nM	CN1C(=O)[C@@H](NC(=O)c2nc3n(n2)C(c2ccccc2)CCC3)COc2ccccc21 (single isomer, unassigned) [Example 791]
70 nM	CN1C(=O)[C@@H](NC(=O)c2cn3c(C(F)(F)F)cccc3n2)COc2ccccc21 (single isomer, unassigned) [Example 792]

Same assay, conditions: human RIP1 kinase domain (2-375), Transcreener ADP assay, 50 uM ATP, 2 hours incubation; read-out: RIP1 Ki

Ki	SMILES
117 nM	CC(c1ccc(F)cc1)n1cnc(C(=O)N[C@H]2CCn3nc(C4CC4)cc3N(C)C2=O)n1 (stereo in doubt) [Example 290, (S)—N-(2-cyclopropyl-4-methyl-5-oxo-5,6,7,8-tetrahydro-4H-pyrazolo[1,5-a][1,3]diazepin-6-yl)-1-(1-(4-fluorophenyl)ethyl)-1H-1,2,4-triazole-3-carboxamide]
820 nM	CN1C(=O)[C@@H](NC(=O)c2ncn(CC3CC3(F)F)n2)CCn2nc(C3CC3)cc21 (stereo in doubt) [Example 291, (S)—N-(2-cyclopropyl-4-methyl-5-oxo-5,6,7,8-tetrahydro-4H-pyrazolo[1,5-a][1,3]diazepin-6-yl)-1-((2,2-difluorocyclopropyl)methyl)-1H-1,2,4-triazole-3-carboxamide]
100 nM	CC(c1ccccc1)n1cnc(C(=O)N[C@H]2CCn3nc(C4CC4)cc3N(C)C2=O)n1 (stereo in doubt) [Example 292, (S)—N-(2-cyclopropyl-4-methyl-5-oxo-5,6,7,8-tetrahydro-4H-pyrazolo[1,5-a][1,3]diazepin-6-yl)-1-(1-phenylethyl)-1H-1,2,4-triazole-3-carboxamide]

Same assay, conditions: read-out: RIP1 Ki

SMILES	Ki
CN1C(=O)[C@@H](NC(=O)c2n[nH]c3c2CC(C(C)(C)C)CC3)COc2ccccc21 (stereo partly drawn) [Example 3, 5-(tert-butyl)-N—((S)-5-methyl-4-oxo-2,3,4,5-tetrahydrobenzo[b][1,4]oxazepin-3-yl)-4,5,6,7-tetrahydro-1H-indazole-3-carboxamide]	68.8 nM

Same assay, conditions: tight-binding apparent inhibition constant; human RIP1 kinase domain (2-375) 50 nM, 50 uM ATP, 2 hours; read-out: Ki

Ki	SMILES
37 nM	Cc1cc2n(n1)CC[C@H](NC(=O)c1ncn(CC3CC(C)C3)n1)C(=O)N2C (stereo in doubt) [Example 491, 1-[(3-methylcyclobutyl)methyl]-N-(6S)-2,4-dimethyl-5-oxo-7,8-dihydro-6H-pyrazol[1,5-a][1,3]diazepin-6-yl-1,2,4-triazole-3-carboxamide]
450 nM	O=C(N[C@H]1COc2cc(F)cc(F)c2NC1=O)c1nc2n(n1)CCC2c1ccccc1 (stereo in doubt) [Example 625, (7S)-7-phenyl-N-[(3S)-6,8-difluoro-4-oxo-3,5-dihydro-2H-1,5-benzoxazepin-3-yl]-6,7-dihydro-5H-pyrrolo[1,2-b][1,2,4]triazole-2-carboxamide]
14 nM	O=C(N[C@H]1COc2cc(F)cc(F)c2NC1=O)c1nc2n(n1)CCC2c1ccccc1 (stereo in doubt) [Example 626, (7R)-7-phenyl-N-[(3S)-6,8-difluoro-4-oxo-3,5-dihydro-2H-1,5-benzoxazepin-3-yl]-6,7-dihydro-5H-pyrrolo[1,2-b][1,2,4]triazole-2-carboxamide]
16.4 nM	CN1C(=O)[C@H](NC(=O)c2ncn(Cc3ccccc3)n2)CCn2nc([C@@H]3CC3(F)F)cc21 (stereo in doubt) [Example 675, 1-benzyl-N-[rac-(6R)-4-methyl-5-oxo-2-[rac-(1S)-2,2-difluorocyclopropyl]-7,8-dihydro-6H-pyrazolo[1,5-a] [1,3]diazepin-6-yl]-1,2,4-triazole-3-carcoxamide]
21.6 nM	CN1C(=O)[C@@H](NC(=O)c2ncn(Cc3ccccc3)n2)CCn2nc([C@H]3CC3(F)F)cc21 (stereo in doubt) [Example 679, 1-benzyl-N-[rac-(6S)-4-methyl-5-oxo-2-[rac-(1R)-2,2-difluorocyclopropyl]-7,8-dihydro-6H-pyrazolo[1,5-a] [1,3diazepin-6-yl]-1,2,4-triazole-3-carboxamide]
9200 nM	CN1C(=O)[C@H](NC(=O)c2ncn(Cc3ccc(F)cc3)n2)CCn2nc(C3CC3)cc21 (stereo in doubt) [Example 680, 1-[(4-fluorophenyl)methyl]-N-[rac-(6R)-2-cyclopropyl-4-methyl-5-oxo-7,8-dihydro-6H-pyrazolo[1,5-a][1,3]diazepin-6-yl]-1,2,4-triazole-3-carboxamide]
23.7 nM	CN1C(=O)[C@@H](NC(=O)c2ncn(Cc3ccc(F)cc3)n2)CCn2nc(C3CC3)cc21 (stereo in doubt) [Example 681, 1-[(4-fluorophenyl)methyl]-N-[rac-(6S)-2-cyclopropyl-4-methyl-5-oxo-7,8-dihydro-6H-pyrazolo[1,5-a][1,3]diazepin-6-yl]-1,2,4-triazole-3-carboxamide]

Reference: US10988459B2 (priority 2015, dated 2021)
